{"source": "paper PMC12024912", "about": "“Druggability Studies of Benzene Sulfonamide Substituted Diarylamide (E3) as a Novel Diuretic” (Biomedicines, 2025)", "key": {"Blood stability, human": {"assay": "Blood stability, human", "assay_type": "in vitro ADME", "settings": "plasma, n=3", "description": "Plasma from mice, rats, rabbits, and humans was obtained from blood after centrifugation at 3000 r/min for 10 min. Simulated gastric fluid (SGF, pH = 1, containing pepsin) and simulated intestinal fluid (SIF, pH = 6.8, containing trypsin) were configured previously in the experiments. SD rats and mice were collected, and after removing the mucus layer from the small intestine and colon, 20 times the volume of liquid bacterial culture medium was added. An intestinal microbiota suspension was obtained after anaerobic cultivation on a shaking table at 37 °C for 12 h. In the aforementioned systems, E3 was added at a final concentration of 1 μmol/L at 37 °C for different incubation times (0, 10, 20, 30, 60, 120, and 240 min). In liver metabolic stability assays, E3 was incubated with liver microsomes or liver homogenate from mice or rats for 60 min at 37 °C. The stop solution, 5 ng/mL tolbutamide (internal standard, IS) in acetonitrile, was added to stop the metabolic process. Post-centrifugation (18,000× g, 10 min, 4 °C), supernatants were subjected to liquid chromatography–tandem mass spectrometry (LC–MS/MS). Analyte-to-IS peak area ratios quantified residual percentages via Equation (2):Remaining% = (E3peak area/ISpeak area at different time)/(E3peak area/ISpeak area at 0 min) × 100%.(2)"}, "[1]": {"assay": "Pharmacokinetic study in rats", "assay_type": "in vivo, rat", "description": "Male SD rats were allowed free access to food in a controlled environment of 22 ± 2 °C, with a humidity level of 55% ± 5%, and maintained under a 12 h light/dark cycle. In the oral administration groups, E3 was delivered in a 0.5% CMC-Na solution at a dosage of 4 mg/kg body weight. Blood samples were collected by the orbital venous plexus and kept on ice at the following time points: 0.083, 0.167, 0.25, 0.5, 1, 2, 4, 6, 8, 12, and 24 h. E3 formulations (DMSO:PEG400:saline = 10:30:60, v/v) were administered via tail vein (1 mg/kg). Serial blood sampling (0.033, 0.083, 0.167, 0.333, 0.5, 1, 2, 4, 8, 12, and 24 h post-dose) yielded plasma via centrifugation (3000 r/min, 10 min, 4 °C), stored at −80 °C until PK analysis using DAS 3.2.8 (noncompartmental analysis model).\nThe analyte E3 and IS were dissolved in DMSO to generate the stock solutions. The working calibration of E3 was gradient-diluted with MeOH/H2O (1:1, v/v). Three microliters of working solutions were spiked with 27 μL of the blank rat plasma to establish the calibration standards. The final concentrations of the standard samples were 1, 2, 5, 10, 50, 250, 500, and 1000 ng/mL. Quality control samples (3/100/800 ng/mL) were prepared using identical protein precipitation protocols. Briefly, 30 μL calibrators and biological matrices were mixed with 450 μL stop solution, vortexed (5 min), and centrifuged (18,000× g, 10 min, 4 °C). Processed supernatants (2 μL injection volume) were subjected to LC-MS/MS analysis.\nThe analysis was conducted by an Xevo TQ-S Cronos Triple Quadrupole Mass Spectrometer coupled with an ACQUITY UPLC (Waters Corp, Milford, MA, USA). The chromatographic separation was conducted in an ACQUITY UPLC BEH C18 1.7 µm column (Waters, Milford, MA, USA) at 40 °C with a flow rate of 0.4 mL/min. The mobile phases were 0.1% (v/v) formic acid in water (A) and pure ACN (B). […] An electrospray ionization (ESI) source with multiple–reaction monitoring (MRM) in positive–ion mode was employed to quantify the analytes with the transitions of m/z 385.11 > 244.19 and m/z 271.136 > 91.01 for E3 and IS, respectively. The optimized cone voltage is 10 V and 24 V for E3 and IS, respectively. The collision energy is 12 V and 32 V for E3 and IS, respectively. MassLynx v4.2 (Waters Corp, Milford, MA, USA) was used for data acquisition and analysis."}, "mice": {"tested_on": "mice", "assay": "Mouse sperm malformation assay", "settings": "mouse, in vivo, po, 2000 mg/kg/day", "description": "Male mice were randomly divided into three groups: control group (0.5% CMC-Na), E3 2000 mg/kg group, and positive group (50 mg/kg cyclophosphamide (CP), administered via intraperitoneal injection). E3 and the control group were administered once daily by intragastric gavage. All mice received treatment for 5 consecutive days. After the initial dosing period, […], the mice were euthanized, and evaluation of sperm parameters was performed as follows:\nCaudal epididymides were dissected into fragments in physiological saline and incubated (37 °C, 5% CO2, 10 min). Spermatozoa were isolated through nylon mesh filtration. Semen parameters were quantified using computer-assisted semen analysis (CASA). Eosin-stained smears (20 μL sperm suspension) were analyzed to examine sperm morphology. […] Sperm shape abnormalities, such as banana, headless, without a hook, amorphous, double-tailed, and fat head, were identified and counted. In addition, the testis was reserved for morphological analysis. The spermatogenesis was graded from 1 to 10 using the Johnsen score."}, "[2]": {"settings": "male, SD, rat, plasma, iv, 1 mg/kg, single i.v. 1 mg/kg, n = 5"}, "[3]": {"settings": "male, SD, rat, plasma, iv, single i.v. 1 mg/kg, n = 5"}, "[4]": {"settings": "male, SD, rat, plasma, po, 4 mg/kg, single p.o. 4 mg/kg, n = 5"}, "[5]": {"settings": "male, SD, rat, plasma, po, single p.o. 4 mg/kg, n = 5"}}, "note": "Like-named read-outs stand apart in the source and are kept apart here."}
{"smiles": "CC(=O)c1ccc(C(=O)Nc2cccc(NS(=O)(=O)c3ccccc3)c2)o1", "note": "[Compound E3, 5-acetyl-N-(3-(phenylsulfonamido)phenyl)furan-2-carboxamide]", "values": [{"measurement": "remaining at 1 μmol/L", "setting": "Blood stability, human", "value": 54.1, "unit": "%"}, {"measurement": "plasma concentration within 24 h", "setting": "[1]; after intragastric gavage administration", "value": "less than 2 ng/mL"}, {"measurement": "MRT", "setting": "[1]; [2]", "value": 1.1, "unit": "h"}, {"measurement": "half-life", "setting": "[1]; [2]", "value": 114, "unit": "min"}, {"measurement": "AUC(0-inf)", "setting": "[1]; [3]", "value": 1120, "unit": "ng·h/mL"}, {"measurement": "AUC(0-t)", "setting": "[1]; [3]", "value": 1120, "unit": "ng·h/mL"}, {"measurement": "Cmax", "setting": "[1]; male, SD, rat, plasma, iv, single i.v. 1 mg/kg, n = 5, read-out: C max", "value": 2540, "unit": "ng/mL"}, {"measurement": "bioavailability", "setting": "[1]; male, SD, rat, plasma, oral, p.o. 4 mg/kg vs i.v. 1 mg/kg, read-out: F (oral bioavailability)", "value": 21.1, "unit": "%"}, {"measurement": "MRT", "setting": "[1]; [4]", "value": "~6.1", "unit": "h"}, {"measurement": "Tmax", "setting": "[1]; [4]", "value": "≤ 2", "unit": "h"}, {"measurement": "half-life", "setting": "[1]; [4]", "value": "~294", "unit": "min"}, {"measurement": "Cmax", "setting": "[1]; male, SD, rat, plasma, po, p.o. 4 mg/kg, conversion of 170.3 ng/mL, read-out: Cmax in molar units", "value": 443, "unit": "nM"}, {"measurement": "AUC(0-inf)", "setting": "[1]; [5]", "value": 943, "unit": "ng·h/mL"}, {"measurement": "AUC(0-t)", "setting": "[1]; [5]", "value": 919, "unit": "ng·h/mL"}, {"measurement": "CL/F", "setting": "[1]; [5]", "value": 70, "unit": "mL/min/kg"}, {"measurement": "Cmax", "setting": "[1]; male, SD, rat, plasma, po, single p.o. 4 mg/kg, n = 5, read-out: C max", "value": 170, "unit": "ng/mL"}, {"measurement": "V (V/F row; V for the i.v. group)", "setting": "[1]; single i.v. 1 mg/kg, n = 5", "value": 2.5, "unit": "L/kg"}, {"measurement": "V/F", "setting": "[1]; single p.o. 4 mg/kg, n = 5", "value": 30.1, "unit": "L/kg"}, {"measurement": "testicular tissue, H&E staining", "setting": "mice", "value": "no significant differences"}]}
